Calls of active or inactive are those of the source. The rule behind the calls is not given here.
Columns and labels:
[1] = tested on: Saccharomyces cerevisiae growth inhibition, permissive control; test: yeast lifespan-shortening chemical project counter-assay, dose-response inhibition of growth under permissive conditions (AID 850);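 note: growth read as optical density after one day of incubation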
[2] = as above; details: Saccharomyces cerevisiae growth inhibition, permissive control, measured here: maximum growth inhibition, stronger effect = higher value

Row | Compound | IC50 [1] | inhibition ([2]; at 50 µM) [%] | also measured
1 | O=C1C=C(c2ccc(Cl)cc2)C(=O)N1Nc1ccccc1 | 6.75 µM | 99.4 | –
2 | O=C(COc1ccccc1)NNC(=S)NC(=O)c1ccc(Cl)cc1Cl | 25.7 µM | 84.4 | –
3 | CC1=NOC(=O)/C1=C/c1ccc(-c2ccc(Cl)cc2)o1 | 11 µM | – | inhibition ([2]; at 25 µM): 90.5%
4 | CCCCCCCCCCCCCCCC[n+]1ccc(/C=N/O)cc1 | 1.07 µM | 100 | –
5 | Oc1c(CN2CCCCC2)cc(Br)c2cccnc12 | 7.22 µM | 99.8 | –
6 | O=C(/C=C/N1CCOCC1)c1ccc(-c2ccccc2)cc1 | 7.19 µM | – | inhibition ([2]; at 25 µM): 99.6%
7 | Oc1cccc2ccc(/C=C/c3cccs3)nc12 | 37.4 µM | 67.1 | –
8 | CC1CCCC2(C1)NC(=S)N(c1ccccc1)N2 (stereo not drawn) | 20.5 µM | 78.8 | –
9 | CC(C)(C)c1cc(NCCCn2ccnc2)n2ncc(-c3ccc(Cl)cc3)c2n1 | > 100 µM (inactive) | – | inhibition ([2]; at 12.5 µM): 1.41%
10 | CC1(C)CC(=NOC(=O)c2ccccc2)CC(C)(C)N1O | 14 µM | 98.6 | –
11 | COc1ccc(-c2cc(-c3ccccc3O)[nH]n2)cc1 | > 100 µM (inactive) | – | inhibition ([2]; at 1.563 µM): 3.65%
12 | CCc1ccc(C2NC(=S)NC3=C2C(=O)N(c2ccccc2OC)C(c2ccc(CC)cc2)N3)cc1 (stereo not drawn) | > 100 µM (inactive) | – | inhibition ([2]; at 0.781 µM): 2.18%
13 | C/C(=N\Nc1ccc(Cl)cc1)c1ccccn1 | 10.1 µM | 97.1 | –
14 | CCOC(=O)c1c(N)sc(C(O)(C(F)(F)F)C(F)(F)F)c1-c1ccc(F)cc1 | > 100 µM (inactive) | – | inhibition ([2]; at 0.098 µM): 8.89%
15 | CNC(=S)N/N=C(\C)c1ccc(N2CCOCC2)cc1 | > 100 µM (inactive) | – | inhibition ([2]; at 0.195 µM): 9.86%
16 | C(=N\c1ncnc2sccc12)/NOCc1ccccc1 | 7.68 µM | 98.6 | –
17 | CC(C)(C)C(=O)O/N=C1/C(=O)N(c2ccccc2)c2ccccc21 | 42.9 µM | – | inhibition ([2]; at 25 µM): 52.3%
18 | N/C(Cc1ccc(Cl)cc1)=N\OC(=O)c1cccc2ccccc12 | 44.3 µM | 99.6 | –
19 | Cc1conc1NC(c1cccs1)c1ccc2cccnc2c1O (stereo not drawn) | 44.9 µM | 69.2 | –
20 | CCCn1c(CNc2ccccc2O)nc2ccccc21 | > 100 µM (inactive) | 18.9 | –
21 | Fc1ccc(-c2ccc(-c3nn4c(-c5ccco5)nnc4s3)o2)cc1 | > 100 µM (inactive) | – | inhibition ([2]; at 6.25 µM): 13.4%

Row | Compound | IC50 [1] | inhibition ([2]; at 50 µM) [%] | also measured
22 | CC(=O)N1c2ccccc2C2(O)N=C(C)SC12 (stereo not drawn) | > 100 µM (inactive) | 16 | –
23 | CC(C)(C)c1nnc(N/N=C/c2cc(Br)ccc2O)n(N)c1=O | 49.9 µM | 50.9 | –
24 | O=C(Nc1nc(-c2ccccn2)cs1)c1ncc(Cl)c(Cl)c1Cl | > 100 µM (inactive) | – | inhibition ([2]; at 12.5 µM): 13.1%
25 | O=C(Nc1nnc(-c2ccc(F)cc2)o1)c1cc(Cl)sc1Cl | 36.8 µM | 81.8 | –
26 | CCOc1ccc(/C=C/C(=O)c2cc(Br)ccc(=O)c2O)cc1 | 16.7 µM | 89.6 | –
27 | O=c1c(-c2ccccc2)nc(-c2ccccc2)cn1O | 22.9 µM | 82.1 | –
28 | O=C(O)Cc1ccc2sc(-c3ccccc3)nc2c1 | > 100 µM (inactive) | 26.9 | –
29 | Cc1cc(O)c(/C=N/Nc2ccccc2)c(=O)o1 | 19.5 µM | 97.9 | –
30 | CN1C(=O)C(O)(CC(=O)c2ccccc2O)c2cc(Br)ccc21 (stereo not drawn) | > 100 µM (inactive) | – | inhibition ([2]; at 0.195 µM): 17.2%
31 | O=S(=O)(NC1CC2CCC1C2)c1ccc(Br)s1 (stereo not drawn) | 1.28 µM | – | inhibition ([2]; at 12.5 µM): 99%
32 | O=C(O)CSc1nc(-c2ccc(Cl)cc2)nc2c1oc1ccccc12 | 32.1 µM | 86.6 | –
33 | Cc1nn2c3ccccc3nc2c2ccccc12 | > 100 µM (inactive) | – | inhibition ([2]; at 0.195 µM): 15.3%
34 | N/C(Cc1ccc(Cl)cc1)=N\OC(=O)c1ccccc1 | 29.8 µM | 98 | –
35 | COC(=O)CSC1=NS(=O)(=O)c2ccccc21 | > 100 µM (inactive) | – | inhibition ([2]; at 12.5 µM): 27.4%
36 | CCCCC(=O)NNC(=S)NC(=O)CCC | 29.7 µM | 75.2 | –
37 | CCCC1COC(Cn2cncn2)(c2ccc(C)cc2)O1 (stereo not drawn) | 1.83 µM | – | inhibition ([2]; at 25 µM): 94.7%
38 | Cc1ccc(N/N=C/c2cccnc2)cc1 | 13 µM | 97 | –
39 | CCN1/C(=C/c2ccc3cc(C)ccc3[n+]2CC)Sc2ccccc21 | 3.44 µM | 99.4 | –
40 | CC(Oc1ccc2ccccc2c1)C(=O)NNC(=S)NC(=O)c1ccco1 (stereo not drawn) | 11.3 µM | 98.6 | –
41 | COc1ccc(C(=O)/C=C/N2CCCCC2)cc1OC | 29.4 µM | 91.2 | –
42 | Oc1c(Br)cc(Br)cc1Oc1ccc(Br)cc1Br | > 100 µM (inactive) | – | inhibition ([2]; at 3.125 µM): 4.84%

Row | Compound | IC50 [1] | inhibition ([2]; at 50 µM) [%] | also measured
43 | CNC(=O)Oc1cccc(-c2cn3cc(OC(=O)NC)ccc3n2)c1 | 6.45 µM | 97.6 | –
44 | c1cncc(-c2nnc(-c3cccnc3)nn2)c1 | 26.3 µM | 90.5 | –
45 | CC1=C/C(=N\OS(=O)(=O)c2ccccc2)C(C)=CC1=O | 0.614 µM | – | inhibition ([2]; at 12.5 µM): 100%
46 | Cc1ccc(-c2nc3sc(C(N)=O)c(N)c3c3c2CCCC3)cc1 | > 100 µM (inactive) | 14.4 | –
47 | Clc1ccc(N=c2ssnc2Cl)cc1 | 32.6 µM | 66.3 | –
48 | NC(=O)c1ccc(N=Cc2ccc([N+](=O)[O-])s2)cc1 | 11 µM | 101 | –
49 | Cc1nc2cc3ccccc3cc2c(=O)[nH]1 | > 100 µM (inactive) | – | inhibition ([2]; at 0.781 µM): 13.9%
50 | CCCc1ccc(Oc2cn[nH]c2-c2ccc(O)c(C)c2O)cc1 | 7.32 µM | – | inhibition ([2]; at 12.5 µM): 101%
51 | COc1cccc2c(=O)c3c(cnn3C)n(C)c12 | > 100 µM (inactive) | – | inhibition ([2]; at 25 µM): 21.2%
52 | c1cn2cc(-c3ccc4c(c3)OCO4)nc2s1 | > 100 µM (inactive) | 27.3 | –
53 | c1ccc2c(c1)oc1c(N3CCOCC3)ncnc12 | > 100 µM (inactive) | – | inhibition ([2]; at 25 µM): 19.7%
54 | O=C(CSC1=NS(=O)(=O)c2ccccc21)Nc1ccccc1 | > 100 µM (inactive) | 17.7 | –
55 | Cc1ncc(CC(=O)n2cc(C(=O)c3cc(Cl)ccc3O)cn2)s1 | 5.42 µM | 100 | –
56 | O=C1OCC(CO)(CO)N=C1NNc1ccccc1Cl | 3.49 µM | – | inhibition ([2]; at 25 µM): 98.4%
57 | Cc1nc2ccc(NC(=O)c3cc([N+](=O)[O-])cc([N+](=O)[O-])c3Cl)cc2s1 | 15.2 µM | 98.4 | –
58 | NNC(=O)c1ccc(COc2cccc3ccccc23)cc1 | 20 µM | 94.7 | –
59 | COc1cc(/C=C2\C(=O)ON=C2c2ccccc2)cc(OC)c1OC | > 100 µM (inactive) | – | inhibition ([2]; at 0.781 µM): -2.57%
60 | CCOC(=O)CSc1nnc(CSc2nc(N)c3c(C)c(C)sc3n2)n1-c1ccccc1 | > 100 µM (inactive) | – | inhibition ([2]; at 0.391 µM): 7.59%
61 | Cc1nc2ccc(C(=O)O)cc2[nH]1 | > 100 µM (inactive) | – | inhibition ([2]; at 0.391 µM): 27.5%
62 | Oc1c(I)cc(I)c2cccnc12 | 17.1 µM | 74.8 | –
63 | O=[N+]([O-])c1ccc(N/N=C/c2ccc[nH]2)cc1 | > 100 µM (inactive) | 5.41 | –

Row | Compound | IC50 [1] | inhibition ([2]; at 50 µM) [%] | also measured
64 | O=C(/C=C/c1ccccc1Cl)c1ccccc(=O)c1O | 11.5 µM | 101 | –
65 | CC(C)c1ccc2c(c1)C1(NN=C(c3ccccc3)S1)C(=O)N2 (stereo not drawn) | 49.5 µM | 49.5 | –
66 | O=C(Nc1nnc(C2CC2)s1)c1ccccn1 | > 100 µM (inactive) | 22.8 | –
67 | Cc1ccc(C(=O)O)cc1N=Cc1cc(Br)cc(Br)c1O | 6.04 µM | 97.1 | –
68 | Cc1cc(C(=O)COC(=O)c2ccc[nH]c2=O)c(C)n1-c1ccc(Br)cc1 | > 100 µM (inactive) | 4.13 | –
69 | O=C1C2C3C=CC(CO)(O3)C2C(=O)N1c1ccccc1-c1ccccc1 (stereo not drawn) | > 100 µM (inactive) | – | inhibition ([2]; at 6.25 µM): 19.9%
70 | Cc1ccc(/C=C2\C(=O)NC(=S)N(c3ccccc3F)C2=O)s1 | > 100 µM (inactive) | – | inhibition ([2]; at 6.25 µM): 29%
71 | Cn1c(SCC(=O)N/N=C/c2ccc([N+](=O)[O-])s2)nnc1-c1ccc(Cl)cc1 | 29.7 µM | 99.2 | –
72 | C=C(C)COc1ccc(-c2[nH]ncc2-c2ccccc2OC)c(O)c1 | > 100 µM (inactive) | – | inhibition ([2]; at 0.781 µM): 23%
73 | Cc1ccc(N/N=C/c2c(O)cc(C)oc2=O)cc1 | 11.8 µM | 99.4 | –
74 | c1cnc2c(c1)ccc1cccnc12 | 8.23 µM | 100 | –
75 | CCOC(=O)CNC(=O)CSc1nnc(-c2ccco2)n1Cc1ccco1 | > 100 µM (inactive) | – | inhibition ([2]; at 0.781 µM): 14.2%
76 | CCOCCCNC(=O)c1ccc(Br)cc1 | > 100 µM (inactive) | – | inhibition ([2]; at 1.563 µM): 27.6%
77 | O=C(/C(=C/O)N=Nc1ccccc1)c1ccncc1 | 13.3 µM | 100 | –
78 | CC(=O)NC1C(=O)N=C(SCC(=O)NC2CCCCC2)NC1=O (stereo not drawn) | > 100 µM (inactive) | 20.3 | –
79 | CCOC(=O)c1cnc(-n2nc(C)cc2C)nc1NC1CCCCC1 | 42.8 µM | 57.5 | –
80 | Cc1ccc(C)c(-n2nnnc2SCC(=O)Nc2cccc(-c3nnc4n3CCCCC4)c2)c1 | > 100 µM (inactive) | 17.5 | –
81 | COC(=O)Cn1c2ccccc2c2nc(C)sc21 | > 100 µM (inactive) | – | inhibition ([2]; at 6.25 µM): 28.7%
82 | Cc1cccc(OCCCCc2c(C)n[nH]c2C)c1C | 32 µM | 76.5 | –
83 | O=C(CC(=O)c1cc(Cl)ccc1O)c1ccccc1 | > 100 µM (inactive) | – | inhibition ([2]; at 12.5 µM): 24.9%
84 | CCCCCC/C(=N/O)c1ccccn1 | 9.77 µM | 99.6 | –

— PubChem BioAssay AID850 (SRMLSC, 2007)
